Test systems include ACHN renal; HOP-92 NSCLC; IGROV1 ovarian; HT29 colon; CAKI-1 renal; HL-60(TB) leukemia; MCF7 breast; SK-MEL-28 melanoma.
Common to all, as to assay: NCI tumour cell line growth inhibition, 48 h

SMILES strings stand for the structures.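 48-hour exposure; five concentrations; linearly interpolated endpoints. GI50: concentration for 50% inhibition of growth. TGI denotes the concentration required for complete inhibition of growth.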

For `O=C1C=Cc2ccccc2/C1=C/c1[nH]c(=O)[nH]c1O`, the GI50 was 9.97 µM in the assay on ACHN renal; 5.75 µM in the assay with HOP-92 NSCLC; 1.39 µM in the assay on IGROV1 ovarian; 4.35 µM in the assay on HT29 colon; 5.7 µM with CAKI-1 renal; 3.44 µM with HL-60(TB) leukemia. For the same compound, the GI50 with MCF7 breast is 2.4 µM. For the same compound, the TGI is > 100 µM with ACHN renal; 47.8 µM in the assay with HOP-92 NSCLC; 26.6 µM with IGROV1 ovarian; 17.1 µM in the assay with HT29 colon; 42.7 µM with CAKI-1 renal; > 100 µM in the assay with HL-60(TB) leukemia. This compound registered a TGI in the assay on MCF7 breast of 15.2 µM.

Turning to `COC(=O)/C(=C\c1c(C)[nH]c2ccccc12)S(=O)(=O)c1ccccc1`, the GI50 in the assay on ACHN renal is 5.52 µM; in the assay on HOP-92 NSCLC, 4.14 µM; in the assay on IGROV1 ovarian, 1.53 µM; in the assay with HT29 colon, 5.23 µM; with SK-MEL-28 melanoma, 5.78 µM; in the assay on CAKI-1 renal, 3.33 µM. Moreover, the GI50 in the assay with MCF7 breast was 2.81 µM. Further, the TGI is 18.5 µM in the assay with ACHN renal; 51.2 µM with HOP-92 NSCLC; 8.94 µM in the assay with IGROV1 ovarian; > 100 µM with HT29 colon; 18.7 µM with SK-MEL-28 melanoma; 16.7 µM in the assay with CAKI-1 renal. The TGI in the assay on MCF7 breast is 12.5 µM.

On to `COc1cc(/C=C/C(=O)c2ccc(Cl)cc2)ccc1OS(=O)(=O)c1ccc(C)cc1`, for which the GI50 was 9.68 µM in the assay on ACHN renal; 14.5 µM in the assay on IGROV1 ovarian; 2.15 µM with HT29 colon; 18.3 µM in the assay with SK-MEL-28 melanoma; 11.1 µM with CAKI-1 renal; 3.29 µM in the assay on HL-60(TB) leukemia. The GI50 in the assay with MCF7 breast is 2.56 µM. Moreover, the TGI in the assay on ACHN renal was 22.2 µM; in the assay on IGROV1 ovarian it was 41.7 µM; in the assay on HT29 colon it was 4.73 µM; with SK-MEL-28 melanoma it was 47.5 µM; in the assay on CAKI-1 renal it was 44.4 µM; in the assay with HL-60(TB) leukemia it was 14.8 µM. This compound also returned a TGI with MCF7 breast of 25.6 µM.

Take `CN(C)CCCNC(=O)c1cc(NC(=O)c2cc(NC(=O)c3cc(NC(=O)CCc4c[nH]c5ccccc45)cn3C)cn2C)cn1C`: the GI50 is > 100 µM in the assay with ACHN renal; 67.1 µM in the assay on HOP-92 NSCLC; > 100 µM in the assay on IGROV1 ovarian; 30.7 µM in the assay with HT29 colon; 2.24 µM in the assay on SK-MEL-28 melanoma; > 100 µM with HL-60(TB) leukemia. Also, the GI50 in the assay with MCF7 breast was 56.8 µM. Moreover, the TGI with ACHN renal, with HOP-92 NSCLC, with IGROV1 ovarian, in the assay on HT29 colon, in the assay with SK-MEL-28 melanoma and with HL-60(TB) leukemia was > 100 µM each time. Also, in the assay with MCF7 breast, the TGI is > 100 µM.

For `CC(=O)OC(C)(C)/C=C/C(=O)[C@](C)(O)[C@H]1[C@H](O)C[C@@]2(C)[C@@H]3CC=C4[C@@H](C[C@H](O)C(=O)C4(C)C)[C@]3(C)C(=O)C[C@]12C`, the TGI in the assay with ACHN renal is < 0.03 µM; in the assay with IGROV1 ovarian, < 0.0132 µM; in the assay on SK-MEL-28 melanoma, < 0.01 µM; with CAKI-1 renal, < 0.01 µM; in the assay with HL-60(TB) leukemia it was < 0.01 µM; in the assay with MCF7 breast, 7.66 µM.

`Cn1c(=O)c2[nH]c(CS(=O)(=O)Cc3nc4c([nH]3)c(=O)n(C)c(=O)n4C)nc2n(C)c1=O`: the TGI in the assay with ACHN renal, with IGROV1 ovarian, in the assay with HT29 colon, with SK-MEL-28 melanoma, in the assay on CAKI-1 renal and in the assay with HL-60(TB) leukemia was > 100 µM throughout. Also, the TGI in the assay with MCF7 breast was > 100 µM.

Consider `O=C(Nc1ccc(Cl)cc1)c1cc2ccccc2cc1O`, for which the GI50 in the assay with ACHN renal is 3.34 µM; in the assay with HOP-92 NSCLC, 1.41 µM; with IGROV1 ovarian, 2.19 µM; in the assay on HT29 colon, 4.09 µM; in the assay on SK-MEL-28 melanoma it was 7.62 µM; in the assay on HL-60(TB) leukemia it was 2.7 µM. In addition, the GI50 with MCF7 breast is 1.9 µM. In addition, the TGI in the assay with ACHN renal was > 100 µM; in the assay with HOP-92 NSCLC it was 7.77 µM; in the assay on IGROV1 ovarian, > 100 µM; in the assay with HT29 colon it was > 100 µM; with SK-MEL-28 melanoma, > 100 µM; in the assay with HL-60(TB) leukemia it was 7.91 µM. For the same compound, the TGI in the assay on MCF7 breast was > 100 µM.

With `COc1ccc(/C=C\c2cc(OC)c(OC)c(OC)c2)cc1OCC(=O)Nc1nc2ccc(C(F)(F)F)cc2s1`, the GI50 with ACHN renal was 4.83 µM; with HOP-92 NSCLC, 2.88 µM; in the assay with IGROV1 ovarian, 4.48 µM; in the assay with HT29 colon, 14.9 µM; with SK-MEL-28 melanoma it was 3 µM; in the assay on CAKI-1 renal it was 3.1 µM. The GI50 in the assay on MCF7 breast was 3.16 µM. Further, the TGI is > 100 µM in the assay with ACHN renal; 75.6 µM in the assay with HOP-92 NSCLC; > 100 µM with IGROV1 ovarian; > 100 µM with HT29 colon; > 100 µM in the assay on SK-MEL-28 melanoma; > 100 µM in the assay on CAKI-1 renal. This compound also returned a TGI in the assay with MCF7 breast of 65.1 µM.

Take `O=C(Oc1ccc(CCl)cc1)c1ccccc1`: the GI50 is 0.119 µM in the assay with ACHN renal; 0.173 µM in the assay on HOP-92 NSCLC; 0.212 µM in the assay with IGROV1 ovarian; 0.149 µM in the assay on HT29 colon; 0.159 µM with SK-MEL-28 melanoma; 0.16 µM in the assay with CAKI-1 renal. Besides, the GI50 in the assay with MCF7 breast was 0.179 µM. The TGI with ACHN renal came out at 0.246 µM; with HOP-92 NSCLC, 0.348 µM; in the assay with IGROV1 ovarian it was 0.419 µM; in the assay with HT29 colon, 0.289 µM; in the assay on SK-MEL-28 melanoma, 0.315 µM; with CAKI-1 renal, 0.303 µM. In addition, the TGI in the assay with MCF7 breast came to 0.525 µM.

In the case of `O=[N+]([O-])/C=C/c1c[nH]c2ccccc12`, the GI50 in the assay with ACHN renal was 17.1 µM; in the assay with IGROV1 ovarian, 13.3 µM; in the assay with HT29 colon it was 19.5 µM; in the assay with SK-MEL-28 melanoma it was 17.4 µM; with CAKI-1 renal it was 16.8 µM; with HL-60(TB) leukemia, 6.5 µM. The GI50 with MCF7 breast was 6.02 µM. The TGI in the assay with ACHN renal is 32.3 µM; in the assay with IGROV1 ovarian it was 27.6 µM; in the assay on HT29 colon, 38.8 µM; in the assay with SK-MEL-28 melanoma, 32.5 µM; in the assay with CAKI-1 renal, 32.7 µM; with HL-60(TB) leukemia it was 25 µM. The same compound came in with a TGI in the assay with MCF7 breast of 38.4 µM.

In the case of `CCSc1nc(N=Cc2cccs2)c2cn[nH]c2n1`, the GI50 is 16.2 µM with ACHN renal; 23.6 µM in the assay with IGROV1 ovarian; 16.7 µM with HT29 colon; 22.3 µM with SK-MEL-28 melanoma; 18 µM with CAKI-1 renal; 3.5 µM in the assay on MCF7 breast. Moreover, the TGI with ACHN renal is > 100 µM; with IGROV1 ovarian, > 100 µM; in the assay on HT29 colon, 80.9 µM; with SK-MEL-28 melanoma it was > 100 µM; in the assay on CAKI-1 renal it was > 100 µM; in the assay with MCF7 breast it was 19.2 µM.
